From patent US8933224B2, “Triazine derivatives” (Pfizer Inc., priority 2013, dated 2015)

biological target: rat PDE10 enzyme (Rattus norvegicus (Rat), UniProt Q9QYJ6); test: PDE10 scintillation proximity assay (SPA), inhibition of rat PDE10 enzyme activity; format: biochemical; conditions: geometric mean of 2-4 determinations unless otherwise indicated (b: ≧5 determinations; c: single determination)
Method: PDE10 activity was measured using a scintillation assay (SPA-based method) similar to that previously described by Seeger, T. F. et al., Brain Research 985 (2003) 113-126. The compounds' relative activity as PDE10 inhibitors was investigated by assaying a fixed amount of enzyme in the presence of the test compound and low substrate concentration (cAMP) such that an IC50 could be determined. […] The assay is performed in a 384-well format with 50 μL assay buffer (50 mM TRIS pH 7.5; 1.3 mM MgCl2; 0.01% Brij) containing enough PDE10 to convert ˜20% of 20 nM ^3H-cAMP, and a range of inhibitors. Reactions are incubated for 30 minutes at 25° C. The addition of 20 μL of 8 mg/ml yttrium silicate SPA beads (PerkinElmer) stops the reaction. The plates are sealed (TopSeal, PerkinElmer) and the beads are allowed to settle for 8 hrs, after which they are read on the Trilux Microbeta overnight. ^1Rat enzyme preparation:^2Human enzyme preparation:
The recombinant Bacmid was isolated and used to transfect sf9 insect cells to generate a viral stock. To generate cell paste for purification, sf21 cells were infected with the virus stock and cells were harvested 72 hours after infection as described in Seeger, T. F. et al., Brain Research 985 (2003) 113-126. Insect cell paste was lysed and after centrifugation, the supernatant was chromatographed on Ni-NTA agarose (Qiagen) followed by Mono Q (GE Healthcare Life Sciences) as described in Seeger, T. F. et al., Brain Research 985 (2003) 113-126.

Sequence of rat PDE10 enzyme (Q9QYJ6 24-794): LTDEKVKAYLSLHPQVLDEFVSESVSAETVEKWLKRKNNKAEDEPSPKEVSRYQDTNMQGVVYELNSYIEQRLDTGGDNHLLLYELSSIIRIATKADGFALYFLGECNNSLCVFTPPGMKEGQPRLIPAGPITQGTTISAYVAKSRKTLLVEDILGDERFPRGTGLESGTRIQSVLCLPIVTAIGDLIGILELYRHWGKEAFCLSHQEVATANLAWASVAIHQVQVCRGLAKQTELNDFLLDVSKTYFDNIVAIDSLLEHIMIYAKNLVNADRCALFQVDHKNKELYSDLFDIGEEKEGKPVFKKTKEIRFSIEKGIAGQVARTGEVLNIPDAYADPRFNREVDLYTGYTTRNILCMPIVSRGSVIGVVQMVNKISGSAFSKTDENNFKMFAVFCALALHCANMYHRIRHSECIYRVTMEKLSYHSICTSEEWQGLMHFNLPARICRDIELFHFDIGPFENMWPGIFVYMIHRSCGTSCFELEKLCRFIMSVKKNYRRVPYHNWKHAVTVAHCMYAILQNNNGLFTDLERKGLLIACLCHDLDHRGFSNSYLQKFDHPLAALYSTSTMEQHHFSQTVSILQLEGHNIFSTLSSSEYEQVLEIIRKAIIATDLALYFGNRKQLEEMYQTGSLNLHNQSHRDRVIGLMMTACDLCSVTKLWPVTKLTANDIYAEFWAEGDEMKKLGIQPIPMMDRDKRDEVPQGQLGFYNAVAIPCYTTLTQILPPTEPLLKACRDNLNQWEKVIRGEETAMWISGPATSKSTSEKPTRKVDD

IC50 | SMILES
1880 pM | CCc1c2c(nn1C)CCN(c1ncnn3c(C)nc(C4CCOCC4)c13)C2 [Example 105, 4-(3-ethyl-2-methyl-2,4,6,7-tetrahydro-5H-pyrazolo[4,3-c]pyridin-5-yl)-7-methyl-5-(tetrahydro-2H-pyran-4-yl)imidazo[5,1-f][1,2,4]triazine]
1440 pM | CCc1nn(C)c2c1CN(c1ncnn3c(C)nc(C4CCOCC4)c13)CC2 [Example 106, 4-(3-ethyl-1-methyl-1,4,6,7-tetrahydro-5H-pyrazolo[4,3-c]pyridin-5-yl)-7-methyl-5-(tetrahydro-2H-pyran-4-yl)imidazo[5,1-f][1,2,4]triazine]
959 pM | CCc1n[nH]c2c1CN(c1ncnn3c(C)nc(C4CCOCC4)c13)CC2 [Example 107, 4-(3-ethyl-1,4,6,7-tetrahydro-5H-pyrazolo[4,3-c]pyridin-5-yl)-7-methyl-5-(tetrahydro-2H-pyran-4-yl)imidazo[5,1-f][1,2,4]triazine]
902 pM | Cc1nc(C2CCOCC2)c2c(N3CCc4[nH]nc(C(C)C)c4C3)ncnn12 [Example 108, 7-methyl-4-(3-(propan-2-yl)-1,4,6,7-tetrahydro-5H-pyrazolo[4,3-c]pyridin-5-yl]-5-(tetrahydro-2H-pyran-4-yl)imidazo[5,1-f][1,2,4]triazine]
1730 pM | Cc1nc(-c2ccccc2F)c2c(N3CCn4ncc(C(F)(F)F)c4C3)ncnn12 [Example 109, 5-(2-fluorophenyl)-7-methyl-4-[3-(trifluoromethyl)-6,7-dihydropyrazolo[1,5-a]pyrazin-5(4H)-yl]imidazo[5,1-f][1,2,4]triazine]
20000 pM | Cc1nc(-c2ccccc2F)c2c(N3CCc4ncncc4C3)ncnn12 [Example 110, 6-[5-(2-fluorophenyl)-7-methylimidazo[5,1-f][1,2,4]triazin-4-yl]-5,6,7,8-tetrahydropyrido[4,3-d]pyrimidine]
147 pM | CCc1c2c(nn1C)CCN(c1ncnn3c(C)nc(-c4ccccc4F)c13)C2 [Example 112, 4(3-ethyl-2-methyl-2,4,6,7-tetrahydro-5H-pyrazolo[4,3-c]pyridin-5-yl)-5-(2-fluorophenyl)-7-methylimidazo[5,1-f][1,2,4]triazine]
638 pM | Cc1c2c(nn1C)CCN(c1ncnn3c(C)nc(-c4ccccc4F)c13)C2 [Example 113]
1490 pM | Cc1nc2c(s1)CN(c1ncnn3c(C)nc(-c4ccccc4F)c13)CC2 [Example 114, 5-(2-fluorophenyl)-7-methyl-4-(2-methyl-6,7-dihydro[1,3]thiazolo[5,4-c]pyridin-5(4H)-yl)imidazo[5,1-f][1,2,4]triazine]
834 pM | Cc1nn(C)c2c1CN(c1ncnn3c(C)nc(-c4ccccc4F)c13)CC2 [Example 115, 4-(1,3-dimethyl-1,4,6,7-tetrahydro-5H-pyrazolo[4,3-c]pyridin-5-yl)-5-(2-fluorophenyl)-7-methylimidazo[5,1-f][1,2,4]triazine]
8010 pM | Cc1nc(-c2ccccc2F)c2c(N3Cc4ccccc4CC3C)ncnn12 (stereo not drawn) [Example 116, 2-[5-(2-fluorophenyl)-7-methylimidazo[5,1-f][1,2,4]triazin-4-yl]-3-methyl-1,2,3,4-tetrahydroisoquinoline]
336 pM | CCc1nn(C)c2c1CN(c1ncnn3c(C)nc(-c4ccccc4F)c13)CC2 [Example 117]
519 pM | CCc1nn(C)c2c1CN(c1ncnn3c(C)nc(-c4ccc(F)cc4Cl)c13)CC2 [Example 119, 5-(2-chloro-4-fluorophenyl)-4-(3-ethyl-1-methyl-1,4,6,7-tetrahydro-5H-pyrazolo[4,3-c]pyridin-5-yl)-7-methylimidazo[5,1-f][1,2,4]triazine]
233 pM | CCc1c2c(nn1C)CCN(c1ncnn3c(C)nc(-c4ccc(F)cc4Cl)c13)C2 [Example 120, 5-(2-chloro-4-fluorophenyl)-4-(3-ethyl-2-methyl-2,4,6,7-tetrahydro-5H-pyrazolo[4,3-c]pyridin-5-yl)-7-methylimidazo[5,1-f][1,2,4]triazine]
1350 pM | Cc1nn(C)c2c1CN(c1ncnn3c(C)nc(-c4ccc(F)cc4Cl)c13)CC2 [Example 121, 5-(2-chloro-4-fluorophenyl)-4-(1,3-dimethyl-1,4,6,7-tetrahydro-5H-pyrazolo[4,3-c]pyridin-5-yl)-7-methylimidazo[5,1-f][1,2,4]triazine]
2650 pM | Cc1nc(-c2ccc(F)cc2Cl)c2c(N3CCc4cnn(C)c4C3)ncnn12 [Example 122, 5-(2-chloro-4-fluorophenyl)-7-methyl-4-(1-methyl-1,4,5,7-tetrahydro-6H-pyrazolo[3,4-c]pyridin-6-yl)imidazo[5,1-f][1,2,4]triazine]
1430 pM | CCOc1nc(C)nc2c1CN(c1ncnn3c(C)nc(-c4ccccc4F)c13)CC2 [Example 123, 4-ethoxy-6-[5-(2-fluorophenyl)-7-methylimidazo[5,1-f][1,2,4]triazin-4-yl]-2-methyl-5,6,7,8-tetrahydropyrido[4,3-d]pyrimidine]
2710 pM | Cc1nc2c(c(=O)n1C)CN(c1ncnn3c(C)nc(-c4ccccc4F)c13)CC2 [Example 124, 6-[5-(2-fluorophenyl)-7-methylimidazo[5,1-f][1,2,4]triazin-4-yl]-2,3-dimethyl-5,6,7,8-tetrahydropyrido[4,3-d]pyrimidin-4(3H)-one]
6400 pM | Cc1nc2c(c(OC(F)F)n1)CN(c1ncnn3c(C)nc(-c4ccccc4F)c13)CC2 [Example 125, 4-(difluoromethoxy)-6-[5-(2-fluorophenyl)-7-methylimidazo[5,1-f][1,2,4]triazin-4-yl]-2-methyl-5,6,7,8-tetrahydropyrido[4,3-d]pyrimidine]
1190 pM | CCn1c(C)nc2c(c1=O)CN(c1ncnn3c(C)nc(-c4ccccc4F)c13)CC2 [Example 126, 3-ethyl-6-[5-(2-fluorophenyl)-7-methylimidazo[5,1-f][1,2,4]triazin-4-yl]-2-methyl-5,6,7,8-tetrahydropyrido[4,3-d]pyrimidin-4(3H)-one]
99.8 pM | CCn1c(C)nc2c(c1=O)CN(c1ncnn3c(C)nc([C@@H]4CCOC4)c13)CC2 [Example 129, 3-ethyl-2-methyl-6-{7-methyl-5-[(3S)-tetrahydrofuran-3-yl]imidazo[5,1-f][1,2,4]triazin-4-yl}-5,6,7,8-tetrahydropyrido[4,3-d]pyrimidin-4(3H)-one]
265 pM | CCc1nc(C2CC2)nc2c1CN(c1ncnn3c(C)nc(-c4ccccc4F)c13)CC2 [Example 136, 2-cyclopropyl-4-ethyl-6-[5-(2-fluorophenyl)-7-methylimidazo[5,1-f][1,2,4]triazin-4-yl]-5,6,7,8-tetrahydropyrido[4,3-d]pyrimidine]
1500 pM | Cc1nc(-c2ccccc2F)c2c(N3CCc4nc(C5CC5)nc(OC(F)F)c4C3)ncnn12 [Example 140, 2-cyclopropyl-4-(difluoromethoxy)-6-[5-(2-fluorophenyl)-7-methylimidazo[5,1-f][1,2,4]triazin-4-yl]-5,6,7,8-tetrahydropyrido[4,3-d]pyrimidine]
142 pM | Cc1nc([C@@H]2CCOC2)c2c(N3CCc4nc(C5CC5)nc(OC(F)F)c4C3)ncnn12 [Example 141, 2-cyclopropyl-4-(difluoromethoxy)-6-{7-methyl-5-[(3S)-tetrahydrofuran-3-yl]imidazo[5,1-f][1,2,4]triazin-4-yl}-5,6,7,8-tetrahydropyrido[4,3-d]pyrimidine]
83.7 pM | [2H]C([2H])([2H])n1c(C2CC2)nc2c(c1=O)CN(c1ncnn3c(C)nc([C@@H]4CCOC4)c13)CC2 [Example 144]
9980 pM | CCOc1nc(C2CC2)nc2c1CN(c1ncnn3c(C)nc(-c4ccccc4F)c13)CC2 [Example 147, 2-cyclopropyl-4-ethoxy-6-[5-(2-fluorophenyl)-7-methylimidazo[5,1-f][1,2,4]triazin-4-yl]-5,6,7,8-tetrahydropyrido[4,3-d]pyrimidine]
497 pM | CCn1c(C2CC2)nc2c(c1=O)CN(c1ncnn3c(C)nc(-c4ccccc4F)c13)CC2 [Example 149, 2-cyclopropyl-3-ethyl-6-[5-(2-fluorophenyl)-7-methylimidazo[5,1-f][1,2,4]triazin-4-yl]-5,6,7,8-tetrahydropyrido[4,3-d]pyrimidin-4(3H)-one]
69.7 pM | CCn1c(C2CC2)nc2c(c1=O)CN(c1ncnn3c(C)nc([C@@H]4CCOC4)c13)CC2 [Example 150, 2-cyclopropyl-3-ethyl-6-{7-methyl-5-[(3S)-tetrahydrofuran-3-yl]imidazo[5,1-f][1,2,4]triazin-4-yl}-5,6,7,8-tetrahydropyrido[4,3-d]pyrimidin-4(3H)-one]
1010 pM | Cc1nc(-c2ccccc2F)c2c(N3CCc4ncccc4C3)ncnn12 [Example 151, 6-[5-(2-fluorophenyl)-7-methylimidazo[5,1-f][1,2,4]triazin-4-yl]-5,6,7,8-tetrahydro-1,6-naphthyridine]

SMILES | IC50
Cc1ccc2c(n1)CCN(c1ncnn3c(C)nc(-c4ccccc4F)c13)C2 [Example 138, 6-[5-(2-fluorophenyl)-7-methylimidazo[5,1-f][1,2,4]triazin-4-yl]-2-methyl-5,6,7,8-tetrahydro-1,6-naphthyridine] | 490 pM
